The values that follow come from patent US8145437B2, “System and method to obtain oligo-peptides with specific high affinity to query proteins” (priority 2005, dated 2012).

Data set [1] has as its system GAL4 peptide. In words: Binding of fluorescent labeled GAL4 peptide to protein extracts of monoclonal clones. Particulars: other proteins tested even in much higher concentrations.
In data set [2] the target is T1, dimerisation domain of 1HBW REGULATORY PROTEIN GAL4 (Saccharomyces cerevisiae, UniProt P04386).
T1 construct: the dimerisation domain of 1HBW REGULATORY PROTEIN GAL4 inserted into pBT (as it is provided and described by Stratagene); host or cells: E. coli BacterioMatch two-hybrid reporter strain (derived from XL1-Blue MRF')
In words: BacterioMatch two-hybrid assay with Target Oligo Pool in pTRG vector. The class given is cell-based. Particulars: ampicillin-resistant reporter. How it is done: The BacterioMatch™ two-hybrid system* (Stratagene, 11011 N. Torrey Pines Road La Jolla, Calif. 92037) was used to Quickly Detect Protein-Protein Interactions designed by the recent Method. It is a simple alternative or complement to yeast two-hybrid systems for in vivo detection of protein-protein interactions. Because the two-hybrid assay is performed in bacteria, results are obtained more easily and quickly than in yeast. The system is based on transcriptional activation of a primary ampicillin-resistant reporter and a secondary β-galactosidase reporter for validation. The BacterioMatch two-hybrid system is based on a methodology developed by Dove, Joung, and Hochschild of Harvard Medical School.
The BacterioMatch two-hybrid system is based on transcriptional activation (FIG. 4). A protein of interest—the bait—is fused to the full-length bacteriophage repressor protein (.lamda.cI). The corresponding target protein is fused to the amino-terminal domain of the α-subunit of RNA polymerase (RNAPα). The bait is tethered to the […] sequence upstream of the reporter promoter through the DNA-binding domain of .lamda.cI. If the bait and target interact, they recruit and stabilize the binding of RNA polymerase close to the promoter and activate the transcription of the ampicillin-resistant reporter gene in the BacterioMatch two-hybrid reporter strain. […]

T1 sequence (P04386 50-106 limits assumed): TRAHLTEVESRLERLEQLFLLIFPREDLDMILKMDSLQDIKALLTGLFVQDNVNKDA

Turning to “Unlabelled GAL4: unlabelled GAL4 peptide, the query, used as competitor of labeled GAL4 (ESRLERLEQLFLLIF)”, in data set [1], the “competition with binding of labeled GAL4 to the proteins from positive clones” value (“competition with binding of labeled GAL4” for short) is “inhibited”.
As for growth hormone, the “competition with binding of labeled GAL4” value in data set [1] is “ineffective competitors”.

B1: prolactin (protein, UniProt P01236 29-227, looked up)
Prolactin: LPICPGGAARCQVTLRDLFDRAVVLSHYIHNLSSEMFSEFDKRYTHGRGFITKAINSCHTSSLATPEDKEQAQQMNQKDFLSLIVSILRSWNEPLYHLVTEVRGMQEAPEAILSKAVEIEEQTKRLLEGMELIVSQVHPETKENEIYPVWSGLPSLQMADEESRLSAYYNLLHCLRRDSHKIDNYLKLLKCRIIHNNNC
On to B1, for which the “competition with binding of labeled GAL4” value in data set [1] is listed as “ineffective competitors”.

B2: TARGET TEMPLATE to … (GAL4 17-31AA): Target oligo template pool, 1st and 3rd codon letters reverse-complementary to Gal4 coding sequence 17-31, 2nd letter undefined (nucleic acid)
DNA: GGATCCATGANTCNTGNCANGGNCTNCTNGANGANAANTCNGTNGANATNGCNGATTCGGCCGC
modifications: listed as DNA, chemistry not fully specified; the letters are possibly those of the target site
On to B2, for which the “positive bacterial clones growing on double selective medium” value in data set [2] is listed as “numerous positive bacterial clones”.
